# Columns and labels:
# [1] = target: T1, Mb-PylRS/tRNACUA pairs D4 and E1 (Methanosarcina barkeri, UniProt Q6WRH6, C313A/N311S/V366H/W382I); experiment: Efficiency, fidelity and permissivity of evolved synthetases: GFP150-TAG expression in E. coli with Tet ncAA; format: cell-based; conditions: synthetase D4 only
# T1 construct: D4-Py1RS (Protein); expressed in transfected cells; host or cells: E. coli DH10b carrying pBK-RS and pALS-GFP150TAG
# Method: (§1) To incorporate Tet ncAAs in the protein, a GCE machinery was developed to encode Tet ncAAs into the protein in response to TAG codon suppression with evolving orthogonal aaRS/tRNAcuA pair. The permissibility of developed synthetases for structurally parallel Tet ncAA derivatives was evaluated in 25 mL scale in presence and absence of 0.5 mM Tet ncAA.
# (§2) Efficiency and fidelity of selected synthetases. The efficiency and fidelity of the selected synthetases were measured by expressing GFP150 in 50 mL AIM with and without 0.5 mM Tet4-Ph. DH10b cells containing the selected pBK-RSs and the pALS-GFP150TAG plasmids, were used to inoculate 5 mL of NIM containing kanamycin (50 μg/mL) and tetracycline (25 μg/mL). Cells were grown for 16 hours at 37° C. shaking at 250 rpm. The saturated NIM cultures (500 μL) were used to inoculate in 50 mL AIM containing kanamycin (50 μg/mL) and tetracycline (25 μg/mL) and measured fluorescence using a Turner Biosystems Picofluor fluorimeter diluting 100 μL cell culture in 1.9 mL water. Two synthetases D4 and E1 for Tet4-Ph were identified to have good efficiency and fidelity. The selected two synthetases are differ at two mutation sites C313A/G and W382I/V respectively.
# (§3) Permissivity screen for Tet4-Pyr with selected synthetases. To assess if the top four selected RSs for Tet4-Ph could incorporate Tet4-Pyr, expressions of GFP150TAG with Tet4-Pyr were evaluated. Using the above efficiency and fidelity method, 5 mL AIM separate cultures were inoculated with cells containing the pBK-RSs/pALS-GFP150. Tet4-Pyr (0.5 mM) was added to cultures from a 50 mM DMF ncAA stock solution. Cultures were grown for 30-36 hours at 37° C. and 250 rpm. Fluorescence of the culture was measured by diluting 100 μL cell culture in 1.9 mL water.
# (§4) Expression and purification of GFP150-TAG-Tet4. […] Protein concentration was determined by measuring absorbance at 280 nm. Protein purity was assessed using SDS-PAGE.
# [2] = Stability and reactivity of incorporated Tet ncAA inside protein on storage in PBS; format: physicochemical
# Method: The stability and reaction efficiency of incorporated Tet ncAAs in proteins was investigated. […] The SDS-PAGE gel mobility shift assay and mass spectrometry analysis of the incorporated Tet-v2.0, Tet-v3.0 and Tet-v4.0 derivatives confirmed their stability and reactivity with sTCO.
# Mobility shift assay. Labeling efficiency and purity of Tet-containing proteins have been verified by reacting with 10 eqv. sTCO-PEG5k under PBS (pH 7.1) for 10 minutes at room temperature and examined the mobility shift of the reacted proteins in SDS-PAGE gel. The mobility shift assay helps to provide an insight into the reaction efficiency of Tet-containing proteins and also quantifies the amount of reactive Tet ncAA present in protein and measures if there is any misincorporation or Tet-degradation by showing unreactive protein.
# In addition, to assess their stability and reactivity more rigorously, GFP-Tet-v4.0 (Ph, 3-Me-Ph, 3-F-Ph and Pyr) were incubated at 4° C. and room temperature (RT) under 50 mM PBS (pH 7.1) with 100 mM imidazole and studied their reaction efficiency for another 8 days.
# Mass spectrometry. The site-specific labelling reaction between Tet ncAA and sTCO is quantitative inside protein was confirmed by ESI-Q-TOF mass spectrometry. […] No other peak has been detected for sTCO exposed samples which verified that the GFP-Tet reacts with sTCO quantitatively without involving side reactions.
# [3] = target: T2, Pyl-tRNA/RS pairs (Tet4 E1 and D4 synthetases) (Methanosarcina barkeri, UniProt Q6WRH6, C313A/N311S/V366H/W382I); experiment: Tet4 ncAA incorporation into GFP150-TAG in HEK293T cells, suppression efficiency by flow cytometry; format: cell-based; conditions: 100 μM ncAA, synthetase D4
# T2 construct: D4-Py1RS (Protein); expressed in transfected cells; host or cells: HEK293T
# T2 sequence (Q6WRH6 whole entry N311S/C313A/V366H/W382I): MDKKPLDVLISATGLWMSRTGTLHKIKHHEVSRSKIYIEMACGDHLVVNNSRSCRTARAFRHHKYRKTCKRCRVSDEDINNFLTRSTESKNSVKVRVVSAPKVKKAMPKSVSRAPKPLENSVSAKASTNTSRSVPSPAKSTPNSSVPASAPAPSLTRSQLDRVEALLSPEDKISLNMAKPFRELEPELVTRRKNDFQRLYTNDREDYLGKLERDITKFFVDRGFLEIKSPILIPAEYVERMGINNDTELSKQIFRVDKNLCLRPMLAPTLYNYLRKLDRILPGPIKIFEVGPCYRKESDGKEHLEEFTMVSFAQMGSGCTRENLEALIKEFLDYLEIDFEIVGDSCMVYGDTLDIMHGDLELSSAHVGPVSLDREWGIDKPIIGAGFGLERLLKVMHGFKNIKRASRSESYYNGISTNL
# Method: (§5) To access newly developed Tet4.0 derivatives into mammalian cells, an optimized eukaryotic expression system was used and their stability and reaction efficiency were validated inside living cells. The permissibility of Tet-v4.0 derivatives into eukaryotic protein was tested with an evolved synthetase Tet-v4.0 E1 and D4 co-transfected with the reporter plasmid pAcBac1-sfGFP-TAG150 into the HEK293T cells and supplemented with 100 μM each of five different Tet-v4.0 (Ph, 3-Me-Ph, 3-F-Ph, 4-F-Ph, and Pyr) derivatives side-by-side.
# (§6) The compatibility of the Tet4 system with mammalian cells was explored. Specifically, the ability of Tet4 to be incorporated into proteins expressed in HEK293T cells, an immortalized human embryonic kidney cell line, was explored. […] Genes for Tet4 E1 and D4 synthetases were cloned with a terminal nuclear export sequence into the eukaryotic expression Pyl-tRNA/RS vector pAcBac1. Pyl-tRNA/RS pairs were then co-transfected with pAcBac1-GFP150-TAG into HEK293T cells and incubated either in the absence of ncAA, or with various concentrations of Tet4 ncAAs, and suppression efficiencies were assessed using flow cytometry. Tet4-Ph and Tet4-Pyr were incorporated into GFP about 50% as well as the Tet-v3.0 system, Tet3-Bu. As with Tet4 incorporation into E. coli expressed proteins, the highest suppression efficiencies in HEK293T cells were obtained with Mb-PylRS synthetase E1 and Tet4-Ph ncAA. Selective incorporation and reactivity of GFP150-Tet4 proteins were verified in whole-cell HEK293T lysates using sTCO-PEG5k-induced SDS-PAGE mobility shifts, and in purified proteins by mass spectrometry.
# (§7) Transfection of HEK293T cells and imaging method. HEK293T cells were plated in a 24-well plate at the density of 40% confluency. Cells were transfected the next day using jetPRIME reagent according to the manufacturer's protocol. Briefly, 67 ng of pAcBac1-NES-D4-RS or pAcBac1-NES-E1-RS and 555 ng of pAcBac1-GFP-150TAG plasmid DNA were diluted with 50 μL of jetPRIME buffer. […] GFP expression was verified by fluorescence microscopy on EVOS FL imaging system.
# [4] = test system: Pyl-tRNA/RS pairs (Tet4 E1 and D4 synthetases); experiment: as above; format: cell-based, Methanosarcina barkeri; conditions: flow cytometry
# Method: as §5, §6, §7
# [5] = test system: Mb-PylRS/tRNACUA pairs D4 and E1; experiment: Efficiency, fidelity and permissivity of evolved synthetases: GFP150-TAG expression in E. coli with Tet ncAA; format: cell-based, Methanosarcina barkeri; conditions: synthetases D4 and E1
# Method: as §1, §2, §3, §4
# T1 sequence (Q6WRH6 whole entry N311S/C313A/V366H/W382I): as above
SMILES,yield of GFP150-TAG expressed with the ncAA [1],yield of GFP150-TAG expressed with the ncAA ([1]; listed as Tet-v4.0Pyr) [mg/L],"stability and reactivity inside protein ([2]; GFP-Tet protein, PBS pH 7.1, room temperature)",incorporation into GFP-TAG150 [3],"incorporation into GFP relative to the Tet-v3.0 system, Tet3-Bu [4]",yield of GFP150-TAG expressed with the ncAA [5] [mg/L],"stability inside protein ([2]; PBS pH 7.1, both 4° C. and RT, after 8 days)"
"N[C@@H](Cc1nnc(-c2ccccn2)nn1)C(=O)O [Tet4-Pyr, (S)-2-amino-3-(6-(pyridin-2-yl)-1,2,4,5-tetrazin-3-yl)propanoic acid]",about 40 mg/L,35 to 40,degraded with time,relatively high yield,about 50%,,
"N[C@@H](Cc1nnc(-c2ccccc2)nn1)C(=O)O [Tet4-Ph, (S)-2-amino-3-(6-phenyl-1,2,4,5-tetrazin-3-yl)propanoic acid]",,,,,about 50%,55 to 60,highly stable

# From US20250243238A1, “TETRAZINE AMINO ACIDS AND METHODS FOR THEIR PRODUCTION AND USE” (Oregon State University, priority 2024, published 2025)
